Measured values published in ChEMBL document CHEMBL2331514, “Structure-based design and synthesis of novel pseudosaccharine derivatives as antiproliferative agents and kinase inhibitors” (Eur J Med Chem, 2013).

test: Partition coefficient, log P of the compound; assay type: physicochemical; conditions: octanol/water

Structure (SMILES) | logP
CCOC(=O)C(=CNc1ccc2c(c1)C(Nc1ccc(Cl)cc1)=NS2(=O)=O)C(=O)OCC | 2.39
CCOC(=O)C(=CNc1ccc2c(c1)C(Nc1cccc(Br)c1)=NS2(=O)=O)C(=O)OCC | 2.48
O=C(Nc1ccccc1)Nc1ccc2c(c1)C(Nc1ccc(Cl)cc1Cl)=NS2(=O)=O | 3.57
O=C(Nc1ccc(Br)cc1)Nc1ccc(OC2=NS(=O)(=O)c3ccccc32)cc1 | 3.64
O=C(O)CCC(=O)Nc1ccc2c(c1)C(Nc1cccc(Br)c1)=NS2(=O)=O | 1.26
O=C(Nc1ccc(Cl)cc1)Nc1ccc(OC2=NS(=O)(=O)c3ccccc32)cc1 | 3.55
